Experimental data reported in patent US8409618B2, “Odor-reducing quinone compounds” (Kimberly-Clark Worldwide, Inc., priority 2002, dated 2013).

Tests used:
[1] = Redox potential (redox potentiometry); format: physicochemical; details: compared with hydrogen (set at 0)
Excerpt: The ability of quinone compounds to accept electrons from another substance (i.e., be reduced) may be quantified using a technique known as redox potentiometry. Redox potentiometry is a technique that measures (in volts) the affinity of a substance for electrons—its electronegativity—compared with hydrogen (which is set at 0). Substances more strongly electronegative than (i.e., capable of oxidizing) hydrogen have positive redox potentials. Substances less electronegative than (i.e., capable of reducing) hydrogen have negative redox potentials. The greater the difference between the redox potentials of two substances (ΔE), the greater the vigor with which electrons will flow spontaneously from the less positive to the more positive (more electronegative) substance. As is well known in the art, redox potential may be measured using any of a variety of commercially available meters, such as an Oxidation Reduction Potential (ORP) tester commercially available from Hanna Instruments, Inc. of Woonsocket, R.I. The redox potential of the quinone compounds may, for instance, be less than about −50 millivolts (mV), in some embodiments less than about −150 mV, in some embodiments less than about −300 mV, and in some embodiments, less than about −500 mV. Although not always the case, the redox potential may vary based on the number and location of functional groups, such as sulfonic acid, on the quinone structure. For example, 2-sulfonic acid anthraquinone has a redox potential of −380 mV; 2,6-disulfonic acid anthraquinone has a redox potential of −325 mV; and 2,7-disulfonic acid anthraquinone has a redox potential of −313 mV. Likewise, 2-sulfonic acid naphthaquinone has a redox potential of −60 mV. The use of other functional groups may also have an affect on the ultimate redox potential of the compound. For example, Acid Blue 25, which also contains amino- and aramid functional groups, has a redox potential of −605 mV.

[2] = Urine odor panel ranking, dye-coated Poise pads without SN-AK (Example 8); design: species or system human
Experimental: (§1) Qualitative odor reduction was also assessed against common odors, such as garlic and urine. Specifically, panelists assessed odorant-containing jars by carefully unscrewing, and then raising the lid of each jar in a controlled manner, such that the odor was not diluted by the ambient air. The jars were wrapped and coded to ensure that the sample identity was unknown.
Specifically, Acid Green 25, Acid Green 41, Acid Blue 129, and D&C Green No. 5 were tested. Powders of the aforementioned dyes (commercially available from Sigma-Aldrich Chemical Co., Inc. of St. Louis, Mo. and Noveon Hilton Davis, Inc. of Cincinnati, Ohio) were dissolved in water so that the concentration of the dye was 8 millimolar (equivalent to 0.5 wt. %). Samples of tissue wrap were created by cutting 9″×6″ sheets from a roll of tissue (1 ply white cellulose wrap sheet having a basis weight of 16.6 grams per square meter) were weighed, oven-dried overnight at 90° C., and weighed again the next day to calculate the amount of residual water in each wrap. The wraps were then dipped into a respective dye solution and hung to dry overnight, after which they were weighed again. The treated wraps were then rinsed in deionized water to remove any unbound dye and hung again to dry overnight. After weighing the treated wraps, they were once again oven-dried overnight at 90° C. and weighed to determine the dry add-on percentages ([…]). The add-on percentage for each sample was approximately 1.6 wt. %.
Two different sets of Poise® pads (commercially available from Kimberly-Clark Corp.) were tested. The first set of dye-coated tissue wraps (without SN-AK) was inserted around the pledgette area of the Poise® pads. The Poise® pads were cut open and the tissue wrap surrounding the pledgette carefully removed and replaced with dye-coated tissue wrap. The second set of dye-coated tissue wraps (without SN-AK) used dye coatings on the top of the pad (rather than inside). These pads were constructed by spreading the solution over the top of each pad. To prevent the superabsorbent area of the pad from soaking up the solution, the pads were cut open prior to coating and a layer of plastic wrap was placed between the top layer of the pad and the superabsorbent core. A pad that was cut open, but coated only with water on top, was used as a control. All pads were dried at room temperature overnight before placing them in mason jars for testing. For control purposes, a Poise® pad was also tested that was cut open, but retained its original tissue wrap. In addition, Serenity® Night & Day™ incontinence pads, which are commercially available from SCA Incontinence Care of Eddystone, Pa. and said to employ OdaSorb Plus™ to reduce odor, were also used for comparison.
Fresh human female urine was then pooled, and 50-milliliter aliquots were applied to the pads using a pipette. The mason jars were placed in a 37° C. incubator overnight for assessment the next day. […] Panelists were again asked to rank any secondary odors for unpleasantness on a scale of 1-5.

[3] = Urine odor and secondary odor panel ranking, dye powders in urine, 8 millimolar (Example 7); design: species or system human; details: for Average Urine Odor Ranking (with statistical corrections), Avg. Score: ignoring statistical anomalies; for Secondary Odor Ranking: scale 1 to 5, 5 extremely unpleasant, individual panelists' scores
Experimental: as §1
The effectiveness of various dyes in reducing urine odor was compared. […] Human female urine was initially collected and pooled by a nurse on staff at Kimberly-Clark Corporation. The pooled urine was added to mason jars in 50-milliliter aliquots using an automated pipette aid. Powders of the aforementioned dyes (commercially available from Sigma-Aldrich Chemical Co., Inc. of St. Louis, Mo. and Noveon Hilton Davis, Inc. of Cincinnati, Ohio) were weighed and placed into the mason jars containing 50 milliliters of urine so that the final concentration of the dye powder was 8 millimolar (equivalent to 0.5 wt. %). The mason jars were placed in an incubator overnight at 37° C.
To aid in the assessment of the dyes, the mason jars were divided into two groups for a morning assessment, and the best of both groups were compared in an afternoon assessment (after a total of 24 hours). In addition to ranking the jars from least to most malodorous (on a scale from 1 to 7, with 7 being the most malodors), panelists were also asked to judge whether there were secondary (non-urine) odors present and, if so, the extent that the secondary odors were unpleasant (on a scale from 1 to 5, with 5 being extremely unpleasant).
In this assessment, panelists were given instructions to rank the least malodorous jar as “1” and the most malodorous jar as “10,” remaining free to rank the other jars between 2-9.

[4] = Urine odor panel ranking, dye powders in urine, 8 millimolar (Example 5); design: species or system human; details: 8 millimolar dye in urine; for urine malodor reduction (panel): 6 and 24 hours; for Avg. Ranking (odor) / Ranking (number of panelists): ranking 1 / Ranking (number of panelists): ranking 4 / Ranking (number of panelists): ranking 3 / Ranking (number of panelists): ranking 5 / Ranking (number of panelists): ranking 7: 10 most, 1 least malodorous
Experimental: Qualitative odor reduction was also assessed against common odors, such as garlic and urine. Specifically, panelists assessed odorant-containing jars by carefully unscrewing, and then raising the lid of each jar in a controlled manner, such that the odor was not diluted by the ambient air. The jars were wrapped and coded to ensure that the sample identity was unknown. The effectiveness of various quinone dyes in reducing urine odor was compared. Human female urine was initially collected and pooled by a nurse on staff at Kimberly-Clark Corporation.

[5] = 1st set (tissue-wrap coating), After 30 Hours
[6] = After 24 Hours, top performers of both groupings, 1 least, 10 most malodorous
[7] = Second Grouping, morning assessment, 8 millimolar, higher = more malodorous
[8] = after 24 hours, top performers, 1 least, 10 most malodorous

`O=C1C=C(S(=O)(=O)O)C(=O)c2ccccc21` [2-sulfonic acid naphthaquinone] gave a redox potential [1] of −60 mV.
In the case of `O=C1c2ccccc2C(=O)c2cc(S(=O)(=O)O)ccc21` [2-sulfonic acid anthraquinone], the redox potential [1] is reported as −380 mV.
`O=C1c2ccc(S(=O)(=O)O)cc2C(=O)c2cc(S(=O)(=O)O)ccc21` [2,7-disulfonic acid anthraquinone] showed a redox potential [1] of −313 mV.
For `Cc1cc(C)c(Nc2cc(S(=O)(=O)[O-])c(N)c3c2C(=O)c2ccccc2C3=O)c(C)c1.[Na+]` [Acid Blue 129], the “Urine Odor Ranking (number of panelists): ranking 1” value [2, 5] was 1 number of panelists, the “Urine Odor Ranking (number of panelists): ranking 3” value (shortened to “Urine Odor Ranking … ranking 3”) [2, 5] was 1 number of panelists and the “Urine Odor Ranking (number of panelists): ranking 4” value (from here on “Urine Odor Ranking … ranking 4”) [2, 5] was 2 number of panelists. The “Average Urine Odor Ranking, Avg. Score” value ([2]; 1st set (tissue-wrap coating), final pooled assessment) was 3.00, the “urine odor reduction (panel), assessment within set” value ([2]; first set of pads (dye-coated tissue wrap around pledgette), overnight 37° C.) was “performed best for the first set of pads” and the “overall urine odor control performance (panel)” value ([2]; tissue-wrap coating, final pooled assessment) was “performed very well”. The “Urine Odor Ranking (number of panelists): ranking 1” value [3, 6] was 1 number of panelists, the “Urine Odor Ranking … ranking 3” value [3, 6] was 1 number of panelists and the “Urine Odor Ranking … ranking 4” value [3, 6] was 1 number of panelists. The “Urine Odor Ranking (number of panelists): ranking 5” value (“Urine Odor Ranking … ranking 5” for short) [3, 6] was 1 number of panelists, the “Urine Odor Ranking (number of panelists): ranking 6” value [3, 6] was 1 number of panelists and the “Average Urine Odor Ranking, Avg. Score” value ([3]; Second Grouping) was 1.8. For the same compound, the “Urine Odor Ranking (number of panelists): ranking 1” value [3, 7] was 3 number of panelists, the “Urine Odor Ranking … ranking 3” value [3, 7] was 2 number of panelists and the “urine odor reduction (panel)” value ([3]; after 24 hours, top performers of both groupings) was “achieved the best odor reduction”. The “Average Urine Odor Ranking, Avg. Score” value [3, 8] was 3.8, the “Average Urine Odor Ranking (with statistical corrections), Avg. Score” value ([3]; after 24 hours, top performers) was 3.8 and the “urine malodor reduction (panel)” value [4] was “functioned effectively in reducing urine malodor”. For the same compound, the “Avg. Ranking (odor)” value ([4]; After 6 Hours) was 1.6, the “Ranking (number of panelists): ranking 1” value ([4]; After 6 Hours) was 4 number of panelists and the “Ranking (number of panelists): ranking 4” value ([4]; After 6 Hours) was 1 number of panelists. The “Avg. Ranking (odor)” value ([4]; After 24 Hours) was 1.3, the “Ranking (number of panelists): ranking 1” value ([4]; After 24 Hours) was 5 number of panelists and the “Ranking (number of panelists): ranking 3” value ([4]; After 24 Hours) was 1 number of panelists.
With `O=C1c2ccc(S(=O)(=O)O)cc2C(=O)c2ccc(S(=O)(=O)O)cc21` [2,6-disulfonic acid anthraquinone] the redox potential [1] was −325 mV.
In the case of `Cc1ccc(Nc2ccc(Nc3ccc(C)cc3S(=O)(=O)[O-])c3c2C(=O)c2ccccc2C3=O)c(S(=O)(=O)[O-])c1.[Na+].[Na+]` [D&C Green No. 5], the “Urine Odor Ranking (number of panelists): ranking 2” value (“Urine Odor Ranking … ranking 2” for short) [3, 6] is reported as 1 number of panelists, the “Urine Odor Ranking … ranking 4” value [3, 6] is reported as 1 number of panelists and the “Urine Odor Ranking (number of panelists): ranking 7” value [3, 6] is reported as 2 number of panelists. For the same compound, the “Urine Odor Ranking (number of panelists): ranking 10” value [3, 6] was 1 number of panelists, the “Secondary Odor Ranking” value ([3]; After 24 Hours) was 4 and the “urine odor reduction (panel)” value ([3]; Second Grouping) was “did not perform as well compared to the other dyes”. For the same compound, the “Urine Odor Ranking … ranking 4” value [3, 7] was 3 number of panelists, the “Urine Odor Ranking … ranking 5” value [3, 7] was 2 number of panelists and the “Secondary Odor Ranking” value ([3]; Second Grouping) was 4. For the same compound, the “Average Urine Odor Ranking, Avg. Score” value [3, 8] was 6.0, the “Average Urine Odor Ranking (with statistical corrections), Avg. Score” value ([3]; after 24 hours, top performers) was 7.0 and the “urine malodor reduction (panel)” value [4] was “functioned effectively in reducing urine malodor”. The “Avg. Ranking (odor)” value ([4]; After 6 Hours) was 3.0, the “Ranking (number of panelists): ranking 1” value ([4]; After 6 Hours) was 1 number of panelists and the “Ranking (number of panelists): ranking 3” value ([4]; After 6 Hours) was 3 number of panelists. The “Ranking (number of panelists): ranking 5” value ([4]; After 6 Hours) was 1 number of panelists, the “Avg. Ranking (odor)” value ([4]; After 24 Hours) was 5.2 and the “Ranking (number of panelists): ranking 4” value ([4]; After 24 Hours) was 3 number of panelists. For the same compound, the “Ranking (number of panelists): ranking 5” value ([4]; After 24 Hours) was 1 number of panelists and the “Ranking (number of panelists): ranking 7” value ([4]; After 24 Hours) was 2 number of panelists.
For `CCCCc1ccc(Nc2ccc(Nc3ccc(CCCC)cc3S(=O)(=O)[O-])c3c2C(=O)c2ccccc2C3=O)c(S(=O)(=O)[O-])c1.[Na+].[Na+]` [Acid Green 27], the “Urine Odor Ranking … ranking 2” value [3, 6] was 1 number of panelists, the “Urine Odor Ranking (number of panelists): ranking 8” value [3, 6] was 2 number of panelists and the “Urine Odor Ranking (number of panelists): ranking 9” value [3, 6] was 1 number of panelists. The “Urine Odor Ranking (number of panelists): ranking 10” value [3, 6] was 1 number of panelists, the “Secondary Odor Ranking” value ([3]; After 24 Hours) was 4 and the “Average Urine Odor Ranking, Avg. Score” value ([3]; Second Grouping) was 3.6. The “Urine Odor Ranking … ranking 2” value [3, 7] was 2 number of panelists, the “Urine Odor Ranking … ranking 4” value [3, 7] was 1 number of panelists and the “Urine Odor Ranking … ranking 5” value [3, 7] was 2 number of panelists. For the same compound, the “Secondary Odor Ranking” value ([3]; Second Grouping) was 2, the “Average Urine Odor Ranking, Avg. Score” value [3, 8] was 6.4 and the “Average Urine Odor Ranking (with statistical corrections), Avg. Score” value ([3]; after 24 hours, top performers) was 8.8. For the same compound, the “urine malodor reduction (panel)” value [4] was “functioned effectively in reducing urine malodor”, the “Avg. Ranking (odor)” value ([4]; After 6 Hours) was 4.4 and the “Ranking (number of panelists): ranking 4” value ([4]; After 6 Hours) was 3 number of panelists. For the same compound, the “Ranking (number of panelists): ranking 5” value ([4]; After 6 Hours) was 2 number of panelists, the “Avg. Ranking (odor)” value ([4]; After 24 Hours) was 4.5 and the “Ranking (number of panelists): ranking 1” value ([4]; After 24 Hours) was 1 number of panelists. For the same compound, the “Ranking (number of panelists): ranking 3” value ([4]; After 24 Hours) was 2 number of panelists and the “Ranking (number of panelists): ranking 7” value ([4]; After 24 Hours) was 3 number of panelists.
